Measurements taken from the NIST ThermoML archive (doi:10.1016/j.jct.2017.05.001).

Assay: wn = mass fraction of the nth substance listed
Conditions: Liquid; for viscosity: Falling or rolling sphere viscometry; for mass density: Vibrating tube method

OCCNCCO [diethanolamine] + O
Conditions	mass density, w1 = 0.0993 [kg/m3]	mass density, w1 = 0.2 [kg/m3]	mass density, w1 = 0.3002 [kg/m3]	mass density, w1 = 0.3997 [kg/m3]	viscosity, w1 = 0.0993 [mPa·s]	viscosity, w1 = 0.2 [mPa·s]	viscosity, w1 = 0.3002 [mPa·s]	viscosity, w1 = 0.3997 [mPa·s]
373.15 K, 30000 kPa	981.4	991.5	1001.6	1012	0.3689	0.4761	0.6417	0.9
373.15 K, 40000 kPa	985.7	995.6	1005.7	1016	0.3724	0.482	0.6515	0.9123
373.15 K, 50000 kPa	989.7	999.5	1009.5	1019.8	–	–	–	–
373.15 K, 60000 kPa	993.6	1003.5	1013.4	1023.6	0.3807	0.492	0.6676	0.9445
373.15 K, 70000 kPa	997.5	1007.3	1017.2	1027.3	–	–	–	–
373.15 K, 80000 kPa	1001.4	1011.1	1020.9	1031	0.3871	0.5046	0.6851	0.9763
373.15 K, 90000 kPa	1005.1	1014.7	1024.4	1034.5	–	–	–	–
373.15 K, 100000 kPa	1008.8	1018.3	1028	1038	0.3943	0.5153	0.7019	1.003
373.15 K, 110000 kPa	1012.4	1021.9	1031.5	1041.4	–	–	–	–
373.15 K, 120000 kPa	1015.9	1025.3	1034.9	1044.8	–	–	–	–
373.15 K, 130000 kPa	1019.4	1028.7	1038.2	1048.1	–	–	–	–
373.15 K, 140000 kPa	1022.7	1032	1041.5	1051.3	–	–	–	–
393.15 K, 100 kPa	952.6	962.8	972.9	983.2	–	–	–	–
393.15 K, 500 kPa	952.9	963.2	973.2	983.5	–	–	–	–
393.15 K, 1000 kPa	953.1	963.3	973.4	983.7	–	–	–	–
393.15 K, 2000 kPa	953.6	963.8	973.9	984.2	–	–	–	–
393.15 K, 5000 kPa	955.1	965.2	975.3	985.6	0.2926	0.3644	0.4675	0.6194
393.15 K, 10000 kPa	957.5	967.7	977.7	988	0.2943	0.3676	0.4721	0.6265
393.15 K, 15000 kPa	959.9	969.9	980	990.3	0.2964	0.37	0.4778	0.6495
393.15 K, 20000 kPa	962.3	972.3	982.4	992.7	0.2989	0.3724	0.4809	0.6555
393.15 K, 25000 kPa	–	–	–	–	0.301	0.3748	0.4848	0.6626
393.15 K, 30000 kPa	966.8	976.8	986.9	997.1	0.3024	0.3769	0.4908	0.6682
393.15 K, 40000 kPa	971.3	981.3	991.2	1001.4	0.3047	0.3818	0.4967	0.681
393.15 K, 50000 kPa	975.4	985.4	995.3	1005.4	–	–	–	–
393.15 K, 60000 kPa	979.7	989.6	999.4	1009.6	0.3113	0.3919	0.5122	0.7072
393.15 K, 70000 kPa	984	993.8	1003.6	1013.6	–	–	–	–
393.15 K, 80000 kPa	987.9	997.6	1007.3	1017.3	0.3178	0.4017	0.527	0.7305
393.15 K, 90000 kPa	991.7	1001.5	1011.2	1021.2	–	–	–	–
393.15 K, 100000 kPa	995.5	1005.2	1014.8	1024.8	0.3233	0.4114	0.5417	0.7538
393.15 K, 110000 kPa	999.4	1008.9	1018.5	1028.5	–	–	–	–
393.15 K, 120000 kPa	1003.1	1012.6	1022.1	1032	–	–	–	–
393.15 K, 130000 kPa	1006.6	1016.1	1025.5	1035.4	–	–	–	–
393.15 K, 140000 kPa	1010.1	1019.5	1029.1	1038.9	–	–	–	–
